According to patent US5616578A (priority 1993, dated 1997):

Key:
in vitro = settings: human, mt-2 cells
Experimental: Cell viability was determined by the metabolism of the tetrazolium dye, XTT, 3,3'-[1-[phenylamino)carbonyl]-3,4-tetrazolium]bis-(4-methoxy-6-nitrobenzene-sulfonic acid(Sigma)(Scudiero et al., Cancer Res. 48:4827-4833 (1988)). In this assay metabolically active cells transform the tetrazolium dye, XTT, to a soluble colored formazan product. Microtiter plates (96 wells) were seeded with 1×10^5 cells/well and graded concentrations of test compounds in RPMI 1640 plus 5% FCS. Cells (MT-2) were allowed to grow at 36° C. in the presence of compounds for 3 days. To each well was added 0.05 ml of 1 mg XTT/ml in phosphate buffered saline (PBS) containing 0.025 mM phenazine methosulfate. Plates were incubated an additional four hours at 36° C. and the A450 was determined. The absorption was proportional to the number of viable cells in the well. The concentration of compound which produced a 50% reduction in the number of viable cells was designated the TC50.
In order to determine how these combinations affect cell viability, a cytotoxicity assay was conducted on combinations of the two compounds over the range 0.3-100 μg/ml and the TC50 s calculated.

[1] = AZT treatment of HIV positive individuals; cited from earlier work
HIV strains = settings: time of AZT treatment after which resistant strains observed; cited from earlier work

In the case of Cc1cn([C@H]2C[C@H](N=[N+]=[N-])[C@@H](CO)O2)c(=O)[nH]c1=O [AZT, 3'-azido-3'-deoxythymidine], the CC50 at 72 h (in vitro) is listed as > 100 µg/mL, the Toxicity [1] is listed as “frequently toxic, causing bone marrow suppression resulting in anemia, leukopenia and thrombocytopenia” and the “AZT-resistant HIV strains observed” value (HIV strains) is listed as “six”.
